ChEMBL document CHEMBL5214986, “Discovery of selective covalent cathepsin K inhibitors containing novel 4-cyanopyrimidine warhead based on quantum chemical calculations and binding mode analysis” (Bioorg Med Chem, 2022)
Calls of active or inactive are those of the source. The rule behind the calls is not given here.

Key:
[1] = molecular target: T1, Cathepsin K (Homo sapiens) (UniProt P43235); test: Inhibition of Cathepsin K (unknown origin) assessed as inhibition of AFC release at 1 uM using sequence LR labelled with AFC as substrate by fluorescence based analysis
T1 sequence (whole entry): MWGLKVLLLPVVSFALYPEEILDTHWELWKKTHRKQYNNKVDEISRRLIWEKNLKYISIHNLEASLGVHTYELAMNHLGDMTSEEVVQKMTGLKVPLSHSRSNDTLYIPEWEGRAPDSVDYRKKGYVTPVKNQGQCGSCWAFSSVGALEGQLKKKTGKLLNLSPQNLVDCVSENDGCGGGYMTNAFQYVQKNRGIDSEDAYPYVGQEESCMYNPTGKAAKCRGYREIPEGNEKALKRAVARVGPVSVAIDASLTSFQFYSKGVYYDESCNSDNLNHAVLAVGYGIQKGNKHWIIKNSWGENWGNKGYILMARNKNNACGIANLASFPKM

[2] = molecular target: T1, Cathepsin K (Homo sapiens); test: Inhibition of Cathepsin K (unknown origin) assessed as inhibition of AFC release at 10 uM using sequence LR labelled with AFC as substrate by fluorescence based analysis
Cathepsin K = molecular target: T2, Cathepsin K (Homo sapiens, UniProt P43235); test: Inhibition of Cathepsin K (unknown origin) assessed as inhibition of AFC release using sequence LR labelled with AFC as substrate by fluorescence based analysis
T2 sequence (P43235 whole entry): T1 sequence (whole entry)

[3] = molecular target: Cathepsin (S and K) (Homo sapiens) (UniProt P25774+P43235); test: Selectivity index, ratio of IC50 for Cathepsin S (unknown origin) to IC50 for Cathepsin K (unknown origin) by fluorescence based analysis; type: protein assay
Sequence of Cathepsin (S and K) (Homo sapiens) (P25774 whole entry, looked up, one chain of several): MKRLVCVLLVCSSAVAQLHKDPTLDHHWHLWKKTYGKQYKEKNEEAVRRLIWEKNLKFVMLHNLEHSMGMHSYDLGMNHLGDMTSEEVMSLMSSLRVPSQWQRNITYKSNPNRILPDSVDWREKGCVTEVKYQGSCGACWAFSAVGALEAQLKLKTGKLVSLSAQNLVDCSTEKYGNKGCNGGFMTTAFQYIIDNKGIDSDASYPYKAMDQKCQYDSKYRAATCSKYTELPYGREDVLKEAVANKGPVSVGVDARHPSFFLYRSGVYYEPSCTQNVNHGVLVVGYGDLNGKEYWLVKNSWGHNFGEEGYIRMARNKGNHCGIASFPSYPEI

Cathepsin S = Cathepsin S (Homo sapiens, UniProt P25774); test: Inhibition of Cathepsin S (unknown origin) assessed as inhibition of AFC release using sequence VVR labelled with AFC as substrate by fluorescence based analysis
Sequence of Cathepsin S (P25774 whole entry): as the sequence (P25774 whole entry, looked up, one chain of several) above

[4] = molecular target: Cathepsin (B and K) (Homo sapiens) (UniProt P43235+P07858); test: Selectivity index, ratio of IC50 for Cathepsin B (unknown origin) to IC50 for Cathepsin K (unknown origin) by fluorescence based analysis; type: protein assay
Cathepsin B = Cathepsin B (Homo sapiens, UniProt P07858); test: Inhibition of Cathepsin B (unknown origin) assessed as inhibition of AFC release using sequence RR labelled with AFC as substrate by fluorescence based analysis
[5] = molecular target: T1, Cathepsin K (Homo sapiens); test: Reversible inhibition of Cathepsin K (unknown origin) assessed as inhibition of AFC release using sequence LR labelled with AFC as substrate preincubated with enzyme for 10 to 60 mins followed by substrate addition by fluorescence based analysis

inhibition [1] | inhibition [2] | IC50 (Cathepsin K) | Ratio IC50 [3] | IC50 (Cathepsin S) | Ratio IC50 [4] | IC50 (Cathepsin B) | inhibition [5] | SMILES
47.4% | 73.2% | – | – | – | – | – | – | N#Cc1ccnc(N(Cc2ccc(Br)cc2)CC2CCCCC2)n1
61.3% | 88.3% | – | – | – | – | – | – | CC(C)(C)CN(Cc1ccc(Cl)cc1)c1nccc(C#N)n1
56.2% | 90.6% | – | – | – | – | – | – | CC(C)(C)CN(Cc1ccc(F)cc1)c1nccc(C#N)n1
– | 32.2% | – | – | – | – | – | – | CC(C)(C)CN(Cc1ccc(Br)cn1)c1nccc(C#N)n1
48% | 93.4% | – | – | – | – | – | – | CC(C)(C)CN(Cc1ccc2cccnc2c1)c1nccc(C#N)n1
43.9% | 75.8% | – | – | – | – | – | – | CC(C)(C)CN(Cc1cc(Br)cs1)c1nccc(C#N)n1
46.9% | 87.4% | – | – | – | – | – | – | CC(C)(C)CN(Cc1ccc2ccccc2n1)c1nccc(C#N)n1
16.8% | 42.8% | – | – | – | – | – | – | N#Cc1ccnc(N(Cc2ccc(Br)cc2)C2CCCCC2)n1
-1.05% | 82.7% | – | – | – | – | – | – | CC(C)(C)CN(Cc1ccccc1)c1nccc(C#N)n1
79.8% | 91.3% | 974 nM | – | – | – | – | – | CC(C)(C)CN(Cc1ccc(Br)cc1)c1nccc(C#N)n1
96.5% | 100% | 1.7 nM | < 300 | < 500 nM | < 1180 | < 2000 nM | – | CC(C)(F)C[C@H](N[C@@H](c1ccc(-c2ccc(S(C)(=O)=O)cc2)cc1)C(F)(F)F)C(=O)NC1(C#N)CC1 [ODANACATIB]
52.6% | 93.7% | – | – | – | – | – | – | Cc1ncc(CN(CC(C)(C)C)c2nccc(C#N)n2)s1
77.5% | 83.3% | 235 nM | – | > 500000 nM | – | > 500000 nM | – | CC(C)(C)CN(Cc1ccc(-c2ccccc2)cc1)c1nccc(C#N)n1
33.6% | 45.5% | – | – | – | – | – | – | CC(C)(C)CN(Cc1cccc(-c2ccccc2)c1)c1nccc(C#N)n1
96.7% | 99.1% | 61.9 nM | > 810 | > 50000 nM | > 1620 | > 100000 nM | Active | CN1CCN(c2ccc(CN(CC(C)(C)C)c3nccc(C#N)n3)cc2)CC1
86.5% | 89.7% | 356 nM | – | > 500000 nM | – | > 500000 nM | – | CC(C)(C)CN(Cc1ccc2ccccc2c1)c1nccc(C#N)n1
